According to patent US20170190671A1, “BIS(ARYL)CATECHOL DERIVATIVES AS HERBICIDES” (E I DU PONT DE NEMOURS AND COMPANY, priority 2014, published 2017):

Tests used:
Assay type in all cases: in vivo
[1] = system: waterhemp (common waterhemp, Amaranthus rudis); experiment: Test C postemergence; details: Amaranthus tuberculatus, post-emergence, Postemergence, scale 0 to 100, read-out: Plant response rating, Waterhemp
In short: (§1)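 Visual ratings were made 13-15 days after treatment in the greenhouse, scored 0-100 against controls, where 100 means complete control. Treatments used a surfactant-containing non-phytotoxic solvent formulation, applied preemergence to seeds in loam-sand soil or postemergence to 2-18 cm plants (1-4 leaves) in peat-based medium.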

[2] = system: pigweed (Amaranthus retroflexus); experiment: Test C postemergence; details: Amaranthus retroflexus, post-emergence, 336 h, Postemergence, scale 0 to 100, read-out: Plant response rating, Pigweed
In short: as §1

[3] = system: rice (Oryza sativa); experiment: Test B flooded paddy; details: Oryza sativa, 336 h; 250 g ai/ha, Flood, 13 to 15 days, scale 0 (no effect) to 100 (complete control); read-out: Plant response rating, Rice
In short: (§2)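 Greenhouse pots flooded to 3 cm above soil at time of treatment received compound via the water, which stayed at that level.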

[4] = system: sedge, umbrella (small-flower umbrella sedge, Cyperus difformis); experiment: Test B flooded paddy; details: Cyperus difformis, 336 h; 250 g ai/ha, Flood, 13 to 15 days, scale 0 (no effect) to 100 (complete control); read-out: Plant response rating, Sedge, Umbrella
In short: as §2

[5] = system: ducksalad (Heteranthera limosa); experiment: Test B flooded paddy; details: Heteranthera limosa, 336 h; 250 g ai/ha, Flood, 13 to 15 days, scale 0 (no effect) to 100 (complete control); read-out: Plant response rating, Ducksalad
In short: as §2

[6] = system: barnyardgrass (Echinochloa crus-galli); experiment: Test B flooded paddy; details: Echinochloa crus-galli, 336 h; 250 g ai/ha, Flood, 13 to 15 days, scale 0 (no effect) to 100 (complete control); read-out: Plant response rating, Barnyardgrass
In short: as §2

[7] = system: ragweed (common ragweed, Ambrosia elatior); experiment: Test A postemergence; details: Ambrosia artemisiifolia, post-emergence, 240 h, 0 to 100 scale, read-out: Plant response rating, Ragweed
In short: (§3)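 Injury scores run from 0, no effect, to 100, complete control, judged by eye against untreated plants roughly 10 days after treatment. Chemicals carried a surfactant in a non-phytotoxic solvent and went onto loam–sand soil preemergence or onto one- to two-leaf seedlings postemergence.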

[8] = system: wheat (Triticum aestivum); experiment: Test A postemergence; details: Triticum aestivum, post-emergence, 240 h, 0 to 100 scale, read-out: Plant response rating, Wheat
In short: as §3

[9] = system: giant foxtail (Setaria faberii); experiment: Test A postemergence; details: Setaria faberi, post-emergence, 240 h, 0 to 100 scale, read-out: Plant response rating, Foxtail, Giant
In short: as §3

[10] = system: pigweed (Amaranthus retroflexus); experiment: Test A postemergence; details: Amaranthus retroflexus, post-emergence, 240 h, 0 to 100 scale, read-out: Plant response rating, Pigweed
In short: as §3

[11] = system: kochia (Kochia scoparia); experiment: Test A postemergence; details: Bassia scoparia, post-emergence, 240 h, 0 to 100 scale, read-out: Plant response rating, Kochia
In short: as §3

[12] = system: Italian ryegrass (Lolium multiflorum); experiment: Test A postemergence; details: Lolium multiflorum, post-emergence, 240 h, 0 to 100 scale, read-out: Plant response rating, Ryegrass, Italian
In short: as §3

[13] = system: galium (catchweed bedstraw, Galium aparine); experiment: Test A postemergence; details: Galium, post-emergence, 240 h, 0 to 100 scale, read-out: Plant response rating, Galium
In short: as §3

[14] = system: blackgrass (Alopecurus myosuroides); experiment: Test A postemergence; details: Alopecurus myosuroides, post-emergence, 240 h, 0 to 100 scale, read-out: Plant response rating, Blackgrass
In short: as §3

[15] = system: barnyardgrass (Echinochloa crus-galli); experiment: Test A postemergence; details: Echinochloa crus-galli, post-emergence, 240 h, 0 to 100 scale, read-out: Plant response rating, Barnyardgrass
In short: as §3

[16] = system: corn (Zea mays); experiment: Test A postemergence; details: Zea mays, post-emergence, 240 h, 0 to 100 scale
In short: as §3

[17] = system: ragweed (common ragweed, Ambrosia elatior); experiment: Test A preemergence; details: Ambrosia artemisiifolia, pre-emergence, 240 h, 0 to 100 scale (0 no effect, 100 complete control), read-out: Ragweed plant response rating
In short: as §3

[18] = system: giant foxtail (Setaria faberii); experiment: Test A preemergence; details: Setaria faberi, pre-emergence, 240 h, 0 to 100 scale (0 no effect, 100 complete control), read-out: Foxtail, Giant plant response rating
In short: as §3

[19] = system: pigweed (Amaranthus retroflexus); experiment: Test A preemergence; details: Amaranthus retroflexus, pre-emergence, 240 h, 0 to 100 scale (0 no effect, 100 complete control), read-out: Pigweed plant response rating
In short: as §3

[20] = system: kochia (Kochia scoparia); experiment: Test A preemergence; details: Bassia scoparia, pre-emergence, 240 h, 0 to 100 scale (0 no effect, 100 complete control), read-out: Kochia plant response rating
In short: as §3

[21] = system: Italian ryegrass (Lolium multiflorum); experiment: Test A preemergence; details: Lolium multiflorum, pre-emergence, 240 h, 0 to 100 scale (0 no effect, 100 complete control), read-out: Ryegrass, Italian plant response rating
In short: as §3

[22] = system: barnyardgrass (Echinochloa crus-galli); experiment: Test A preemergence; details: Echinochloa crus-galli, pre-emergence, 240 h
In short: as §3

## N#Cc1cccc(Oc2ncc(Cl)cn2)c1Oc1cnc(Cl)cn1 [Compound 32, 2-[(5-chloro-2-pyrazinyl)oxy]-3-[(5-chloro-2-pyrimidinyl)oxy]benzonitrile]
[1]; 31 g ai/ha
  pest or weed control at 31 g/ha: 85%
[1]; 62 g ai/ha
  pest or weed control at 62 g/ha: 85%
[1]; 125 g ai/ha
  pest or weed control at 125 g/ha: 95%
[2]; 31 g ai/ha
  pest or weed control at 31 g/ha: 85%
[2]; 62 g ai/ha
  pest or weed control at 62 g/ha: 90%
[2]; 125 g ai/ha
  pest or weed control at 125 g/ha: 95%
[3]
  plant injury at 250 g/ha: 40%
[4]
  pest or weed control at 250 g/ha: 90%
[5]
  pest or weed control at 250 g/ha: 75%
[6]
  pest or weed control at 250 g/ha: 70%
[7]; 31 g ai/ha
  pest or weed control at 31 g/ha: 10%
[7]; 125 g ai/ha
  pest or weed control at 125 g/ha: 30%
[8]; 31 g ai/ha
  plant injury at 31 g/ha: 0%
[8]; 125 g ai/ha
  plant injury at 125 g/ha: 30%
[9]; 31 g ai/ha
  pest or weed control at 31 g/ha: 50%
[9]; 125 g ai/ha
  pest or weed control at 125 g/ha: 90%
[10]; 31 g ai/ha
  pest or weed control at 31 g/ha: 100%
[10]; 125 g ai/ha
  pest or weed control at 125 g/ha: 100%
[11]; 31 g ai/ha
  pest or weed control at 31 g/ha: 90%
[11]; 125 g ai/ha
  pest or weed control at 125 g/ha: 90%
[12]; 31 g ai/ha
  pest or weed control at 31 g/ha: 10%
[12]; 125 g ai/ha
  pest or weed control at 125 g/ha: 50%
[13]; 31 g ai/ha
  pest or weed control at 31 g/ha: 90%
[13]; 125 g ai/ha
  pest or weed control at 125 g/ha: 90%
[14]; 31 g ai/ha
  pest or weed control at 31 g/ha: 60%
[14]; 125 g ai/ha
  pest or weed control at 125 g/ha: 70%
[15]; 31 g ai/ha
  pest or weed control at 31 g/ha: 40%
[15]; 125 g ai/ha
  pest or weed control at 125 g/ha: 100%
[16]; 31 g ai/ha
  Corn plant response rating (crop injury, 0 = no effect, 100 = complete kill) at 31 g/ha: 30%
[16]; 125 g ai/ha
  Corn plant response rating (crop injury, 0 = no effect, 100 = complete kill) at 125 g/ha: 50%
[17]; 31 g ai/ha
  pest or weed control at 31 g/ha: 0%
[17]; 125 g ai/ha
  pest or weed control at 125 g/ha: 30%
[18]; 31 g ai/ha
  pest or weed control at 31 g/ha: 100%
[18]; 125 g ai/ha
  pest or weed control at 125 g/ha: 100%
[19]; 31 g ai/ha
  pest or weed control at 31 g/ha: 100%
[19]; 125 g ai/ha
  pest or weed control at 125 g/ha: 100%
[20]; 31 g ai/ha
  pest or weed control at 31 g/ha: 100%
[20]; 125 g ai/ha
  pest or weed control at 125 g/ha: 100%
[21]; 31 g ai/ha
  pest or weed control at 31 g/ha: 10%
[21]; 125 g ai/ha
  pest or weed control at 125 g/ha: 60%
[22]; 31 g ai/ha, 0 to 100 scale (0 no effect, 100 complete control), read-out: Barnyardgrass plant response rating
  pest or weed control at 31 g/ha: 30%
[22]; 125 g ai/ha, 0 to 100 scale, read-out: Plant response rating, Barnyardgrass
  pest or weed control at 125 g/ha: 90%
